Results: patent publication US20260217735A1, “HETEROCYCLES AND USES THEREOF” (Kumquat Biosciences Inc., priority 2023, published 2026)

What was measured:
Format in all cases: biochemical
KRAS WT = target: T1, KRAS WT (Homo sapiens, UniProt P01116); test: HTRF assay, wildtype KRAS interaction with SOS1; conditions: bins <500 nM / 500 nM to 1000 nM, read-out: Inhibition of KRAS WT (IC50)
T1 construct: made in house; host or cells: E. coli, e.g. BL21 (DE3)
From the text: (§1) This assay can be also used to assess a selective inhibition or reduction of signaling output of a mutant Ras protein relative to a wildtype, or relative to a different mutant Ras protein. For example, the equilibrium interaction of wildtype KRAS or K-Ras mutant (e.g., wildtype or a mutant thereof) with SOS1 (e.g., hSOS1) can be assessed as a proxy or an indication for the ability of a subject compound to bind and inhibit Ras protein. The HTRF assay detects from (i) a fluorescence resonance energy transfer (FRET) donor (e.g., antiGST-Europium) that is bound to GST-tagged K-Ras mutant to (ii) a FRET acceptor (e.g., anti-6His-XL665) bound to a His-tagged hSOSL1.
(§2) The assay buffer can contain ~5 mM HEPES pH 7.4, ~150 mM NaCl, ~1 mM DTT, 0.05% BSA and 0.0025% (v/v) Igepal. A Ras working solution is prepared in an assay buffer containing typically a suitable amount of the protein construct (e.g., GST-tagged K-Ras mutant) and the FRET donor (e.g., antiGST-Eu(K) from Cisbio, France). A SOS1 working solution is prepared in an assay buffer containing suitable amount of the protein construct (e.g., His-hSOS1) and the FRET acceptor (e.g., anti-6His-XL665 from Cisbio, France). A suitable amount of the protein construct will depend on the range of activity or range of IC50 values being detected or under investigation. For detecting an IC50 within a range of 500 nM, the protein constructs of the same range of molarity can be utilized.
(§3) A fixed volume of DMSO with or without test compound is transferred into a 384-well plate. Ras working solution is added to all wells of the test plate. SOS1 working solution is added to all wells except for those that are subsequently filled with inhibitor control solution. Upon incubation for about 10 minutes or longer, the fluorescence is measured with a M1000Pro plate reader (Tecan) using HTRF detection (excitation 337 nm, emission 1: 620 nm, emission 2: 665 nm). Compounds are tested in duplicate at different concentrations (for example, 10 μM, 2.5 μM, 0.63 μM, 0.16 μM, 0.04 μM, 0.01 μM test compound). The ratiometric data (i.e., emission 2 divided by emission 1) is used to calculate IC50 values against Ras using GraphPad Prism (GraphPad software). Signaling output measured in terms of IC50 values can be obtained and a ratio of IC50 against one mutant relative to another mutant can be calculated. For instance, a selective reduction of K-Ras G12S signaling output can be evidenced by a ratio greater than one. In particular, a selective reduction of K-Ras G12S signaling relative to K-Ras WT signaling is evidenced if the ratio of IC50 (against K-Ras WT) to IC50 (against K-Ras G12S) is greater than 1.

KRAS G12D = target: T2, KRAS G12D (Homo sapiens, UniProt P01116, G12D); test: HTRF assay, KRAS G12D interaction with SOS1; conditions: bins <500 nM / 500 nM to 1000 nM, read-out: Inhibition of KRAS G12D (IC50)
T2 construct: made in house; host or cells: E. coli, e.g. BL21 (DE3)
T2 sequence (P01116 1-188 isoform P01116-2 G12D): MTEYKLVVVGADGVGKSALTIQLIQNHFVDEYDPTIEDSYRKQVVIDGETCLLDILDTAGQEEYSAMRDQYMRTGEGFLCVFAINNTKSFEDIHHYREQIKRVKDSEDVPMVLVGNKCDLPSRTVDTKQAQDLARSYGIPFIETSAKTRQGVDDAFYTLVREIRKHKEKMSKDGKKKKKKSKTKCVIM
From the text: as §1, §2, §3

KRAS G12S = target: T3, KRAS G12S (Homo sapiens, UniProt P01116, G12S); test: HTRF assay, KRAS G12S interaction with SOS1; conditions: bins <500 nM / 500 nM to 1000 nM, read-out: Inhibition of KRAS G12S (IC50)
T3 construct: made in house; host or cells: E. coli, e.g. BL21 (DE3)
T3 sequence (P01116 1-188 isoform P01116-2 G12S): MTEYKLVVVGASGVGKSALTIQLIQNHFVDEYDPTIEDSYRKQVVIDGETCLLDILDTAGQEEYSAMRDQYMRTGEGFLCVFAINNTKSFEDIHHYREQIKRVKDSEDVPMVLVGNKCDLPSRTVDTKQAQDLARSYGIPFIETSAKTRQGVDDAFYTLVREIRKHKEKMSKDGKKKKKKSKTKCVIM
From the text: as §1, §2, §3

KRAS G12V = target: T4, KRAS G12V (Homo sapiens, UniProt P01116, G12V); test: HTRF assay, KRAS G12V interaction with SOS1; conditions: bins <500 nM / 500 nM to 1000 nM, read-out: Inhibition of KRAS G12V (IC50)
T4 construct: made in house; host or cells: E. coli, e.g. BL21 (DE3)
T4 sequence (P01116 1-188 isoform P01116-2 G12V): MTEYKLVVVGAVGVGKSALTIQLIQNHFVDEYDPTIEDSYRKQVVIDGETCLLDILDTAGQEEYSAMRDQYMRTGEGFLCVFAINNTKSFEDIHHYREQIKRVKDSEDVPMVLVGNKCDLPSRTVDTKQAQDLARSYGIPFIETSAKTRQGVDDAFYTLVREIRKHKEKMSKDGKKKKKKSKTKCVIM
From the text: as §1, §2, §3

Measured: IC50

T1 sequence (P01116 1-188 isoform P01116-2): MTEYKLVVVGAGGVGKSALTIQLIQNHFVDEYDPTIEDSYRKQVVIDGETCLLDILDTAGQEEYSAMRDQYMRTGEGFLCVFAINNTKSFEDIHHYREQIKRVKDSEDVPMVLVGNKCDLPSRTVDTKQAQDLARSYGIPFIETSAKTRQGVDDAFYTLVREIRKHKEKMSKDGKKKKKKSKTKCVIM

Cc1cn(C(=O)N2CC[C@@H](N(C)c3nc(OC[C@@]45CCCN4C[C@H](F)C5)nc4c(F)c(-c5ccc(F)c6sc(N)c(C#N)c56)c(Cl)cc34)[C@H]2C)c(C)n1 [Compound 105, 2-amino-4-(6-chloro-4-(((2R,3R)-1-(2,4-dimethyl-1H-imidazole-1-carbonyl)-2-methylpyrrolidin-3-yl)(methyl)amino)-8-fluoro-2-(((2R,7aS)-2-fluorotetrahydro-1H-pyrrolizin-7a(5H)-yl)methoxy)quinazolin-7-yl)-7-fluorobenzo[b]thiophene-3-carbonitrile]
< 500 nM: all assays above

CN(c1nc(OC[C@@]23CCCN2C[C@H](F)C3)nc2c(F)c(-c3ccc(F)c4sc(N)c(C#N)c34)c(Cl)cc12)C1CN(C(=O)n2ccnc2)CC1F (single isomer, unassigned) [Compound 191]
< 500 nM: all assays above

Cc1ncn(C(=O)N2C[C@H]3[C@@H]2CCCN3c2nc(OC[C@]34CCCN3C[C@@H](F)C4)nc3c(F)c(-c4ccc(F)c5sc(N)c(C#N)c45)c(Cl)cc23)c1C [Compound 129, 2-amino-4-(6-chloro-4-((1S,6S)-7-(4,5-dimethyl-1H-imidazole-1-carbonyl)-2,7-diazabicyclo[4.2.0]octan-2-yl)-8-fluoro-2-(((2S,7aR)-2-fluorotetrahydro-1H-pyrrolizin-7a(5H)-yl)methoxy)quinazolin-7-yl)-7-fluorobenzo[b]thiophene-3-carbonitrile]
< 500 nM: all assays above

CCN(c1nc(OC[C@@]23CCCN2C[C@H](F)C3)nc2c(F)c(-c3ccc(F)c4sc(N)c(C#N)c34)c(C3CC3)cc12)[C@@H]1CCN(C(=O)n2cc(C)nc2C)[C@@H]1C (atropisomer, axis not shown; (aS)) [Compound 190, (S)-2-amino-4-(6-cyclopropyl-4-(((2R,3R)-1-(2,4-dimethyl-1H-imidazole-1-carbonyl)-2-methylpyrrolidin-3-yl)(ethyl)amino)-8-fluoro-2-(((2R,7aS)-2-fluorotetrahydro-1H-pyrrolizin-7a(5H)-yl)methoxy)quinazolin-7-yl)-7-fluorobenzo[b]thiophene-3-carbonitrile]
< 500 nM: all assays above

CC1CC(N(C)c2nc(OC[C@@]34CCCN3C[C@H](F)C4)nc3c(F)c(-c4ccc(F)c5sc(N)c(C#N)c45)c(Cl)cc23)CCN1C(=O)n1ccnc1 (stereo partly drawn) [Compound 153, 4-(4-((1-(1H-imidazole-1-carbonyl)-2-methylpiperidin-4-yl)(methyl)amino)-6-chloro-8-fluoro-2-(((2R,7aS)-2-fluorotetrahydro-1H-pyrrolizin-7a(5H)-yl)methoxy)quinazolin-7-yl)-2-amino-7-fluorobenzo[b]thiophene-3-carbonitrile]
< 500 nM: KRAS WT | KRAS G12S | KRAS G12V

Cc1ncn(C(=O)N2CC3CCCN(c4nc(OC[C@@]56CCCN5C[C@H](F)C6)nc5c(F)c(-c6ccc(F)c7sc(N)c(C#N)c67)c(Cl)cc45)C3C2)c1C (stereo partly drawn) [Compound 206, 2-amino-4-(6-chloro-4-(6-(4,5-dimethyl-1H-imidazole-1-carbonyl)octahydro-1H-pyrrolo[3,4-b]pyridin-1-yl)-8-fluoro-2-(((2R,7aS)-2-fluorotetrahydro-1H-pyrrolizin-7a(5H)-yl)methoxy)quinazolin-7-yl)-7-fluorobenzo[b]thiophene-3-carbonitrile]
< 500 nM: all assays above

CCN(c1nc(OC[C@@]23CCCN2C[C@H](F)C3)nc2c(F)c(-c3cccc4sc(N)c(C#N)c34)c(Cl)cc12)[C@@H]1CCN(C(=O)n2cc(C#N)nc2C)[C@@H]1C [Compound 113, 1-((2R,3R)-3-((7-(2-amino-3-cyanobenzo[b]thiophen-4-yl)-6-chloro-8-fluoro-2-(((2R,7aS)-2-fluorotetrahydro-1H-pyrrolizin-7a(5H)-yl)methoxy)quinazolin-4-yl)(ethyl)amino)-2-methylpyrrolidine-1-carbonyl)-2-methyl-1H-imidazole-4-carbonitrile]
< 500 nM: all assays above

Cc1cn(C(=O)N2C[C@]3(CCCCN(c4nc(OC[C@@]56CCCN5C[C@H](F)C6)nc5c(F)c(-c6ccc(F)c7sc(N)c(C#N)c67)c(Cl)cc45)C3)[C@H]2C2(C)CC2)cn1 [Compound 207, 2-amino-4-(6-chloro-8-fluoro-2-(((2R,7aS)-2-fluorotetrahydro-1H-pyrrolizin-7a(5H)-yl)methoxy)-4-((1R,4R)-2-(4-methyl-1H-imidazole-1-carbonyl)-1-(1-methylcyclopropyl)-2,6-diazaspiro[3.6]decan-6-yl)quinazolin-7-yl)-7-fluorobenzo[b]thiophene-3-carbonitrile]
< 500 nM: all assays above

COCC1([C@H]2N(C(=O)n3cnc(C)c3)C[C@]23CCCCN(c2nc(OC[C@@]45CCCN4C[C@H](F)C5)nc4c(F)c(-c5ccc(F)c6sc(N)c(C#N)c56)c(Cl)cc24)C3)CC1 [Compound 203, 2-amino-4-(6-chloro-8-fluoro-2-(((2R,7aS)-2-fluorotetrahydro-1H-pyrrolizin-7a(5H)-yl)methoxy)-4-((1S,4R)-1-(1-(methoxymethyl)cyclopropyl)-2-(4-methyl-1H-imidazole-1-carbonyl)-2,6-diazaspiro[3.6]decan-6-yl)quinazolin-7-yl)-7-fluorobenzo[b]thiophene-3-carbonitrile]
< 500 nM: all assays above

CCN(c1nc(OC[C@@]23CCCN2C[C@H](F)C3)nc2c(F)c(-c3ccc(F)c4sc(N)c(C#N)c34)c(Cl)cc12)[C@@H]1CCN(C(=O)n2cnc3c2CCC3)[C@@H]1C [Compound 132, 2-amino-4-(6-chloro-4-(ethyl((2R,3R)-2-methyl-1-(1,4,5,6-tetrahydrocyclopenta[d]imidazole-1-carbonyl)pyrrolidin-3-yl)amino)-8-fluoro-2-(((2R,7aS)-2-fluorotetrahydro-1H-pyrrolizin-7a(5H)-yl)methoxy)quinazolin-7-yl)-7-fluorobenzo[b]thiophene-3-carbonitrile]
< 500 nM: all assays above

C=C1CN2CC(=C)CC2(COc2nc(N(CC)[C@@H]3CCN(C(=O)n4cnc(Cl)n4)[C@@H]3C)c3cc(C(F)(F)F)c(-c4ccc(F)c5sc(N)c(C#N)c45)c(F)c3n2)C1 [Compound 219, 2-amino-4-(4-(((2R,3R)-1-(3-chloro-1H-1,2,4-triazole-1-carbonyl)-2-methylpyrrolidin-3-yl)(ethyl)amino)-2-((2,6-dimethylenetetrahydro-1H-pyrrolizin-7a(5H)-yl)methoxy)-8-fluoro-6-(trifluoromethyl)quinazolin-7-yl)-7-fluorobenzo[b]thiophene-3-carbonitrile]
< 500 nM: all assays above

CC1CC(N(C)c2nc(OC[C@@]34CCCN3C[C@H](F)C4)nc3c(F)c(-c4ccc(F)c5sc(N)c(C#N)c45)c(Cl)cc23)CN1C(=O)n1cnc(F)n1 (stereo partly drawn) [Compound 146, 2-amino-4-(6-chloro-8-fluoro-4-((1-(3-fluoro-1H-1,2,4-triazole-1-carbonyl)-5-methylpyrrolidin-3-yl)(methyl)amino)-2-(((2R,7aS)-2-fluorotetrahydro-1H-pyrrolizin-7a(5H)-yl)methoxy)quinazolin-7-yl)-7-fluorobenzo[b]thiophene-3-carbonitrile]
< 500 nM: all assays above
